The test concerns NF-κ B activation. Description: Inhibitory activity of NF-κB activation, luciferase reporter assay under TNF-α stimulation in HepG2. It counts as cell-based, human. The following applies: HepG2, TNF-α 40 ng/ml, 4 hours; for inhibition at 1 µg/mL / inhibition at 10 µg/mL: Homo sapiens, read-out: Inhibitory rate against NF-κB activation (%). On the procedure:
Measurement of Inhibitory Activity of NF-κB activation
Using a transfection reagent (Effectene; QIAGEN), the human hepatoma cell strain HepG2 was transfected with a plasmid (pNF κ B-Luc Reporter Plasmid; […]) integrated with an oligonucleotide having five tandem copies of NF-κ B binding sequences([…]) on a upstream region of firefly luciferase gene(Luc) according to the QIAGEN's protocol, and the cells were incubated for 6 to 24 hours. After addition of TNF-α (40 ng/ml) in the presence or absence of a test compound, the cells were incubated for 4 hours, and intracellular luciferase activity was measured by using PicaGene LT (TOYO INK MFG Co., Ltd.) and a chemical luminescence measurement apparatus ([…]luor Plus; TECAN). The inhibitory ratio was measured as a ratio relative to the value of the luciferase activity in the absence of the test compound.
(In general: Reporter assays use an easily measured gene product as a stand-in for the process of interest.)

For `CC(=O)Oc1ccccc1C(=O)Nc1cc(C(F)(F)F)cc(C(F)(F)F)c1` [compound 1, 2-acetoxy-N-[3,5-bis(trifluoromethyl)phenyl]benzamide], under “Drug concentration at 1 μg/mL”, the inhibition at 1 µg/mL turned out to be 90.9%. Moreover, the inhibition at 10 µg/mL (Drug concentration at 10 μg/mL) came to 97.1%. As to `O=C(Nc1cc(C(F)(F)F)cc(C(F)(F)F)c1)c1ccccc1O` [compound 2], the “Inhibitory rate against NF-κB activation (%)” value (“Inhibitory rate … (%)” for short) (Drug concentration at 1 μg/mL) was determined as 93.3% and the “Inhibitory rate … (%)” value (Drug concentration at 10 μg/mL) is 95.6%. Consider `O=C(Nc1cc(C(F)(F)F)cc(C(F)(F)F)c1)c1cc(F)ccc1O` [compound 3], for which the “Inhibitory rate … (%)” value turned out to be 81.5% (Drug concentration at 1 μg/mL) and 94.3% (Drug concentration at 10 μg/mL). `CC(=O)Oc1ccc(Cl)cc1C(=O)Nc1cc(C(F)(F)F)cc(C(F)(F)F)c1` [compound 5]: the “Inhibitory rate … (%)” value stood at 96.5% (Drug concentration at 1 μg/mL) and 99.2% (Drug concentration at 10 μg/mL). For `O=C(Nc1cc(C(F)(F)F)cc(C(F)(F)F)c1)c1cc([N+](=O)[O-])ccc1O` [compound 8, N-[3,5-bis(trifluoromethyl)phenyl]-2-hydroxy-5-nitrobenzamide], the inhibition at 1 µg/mL (Drug concentration at 1 μg/mL) is 92%. Besides, the inhibition at 10 µg/mL (Drug concentration at 10 μg/mL) is 99.2%. For the molecule `N#Cc1ccc(O)c(C(=O)Nc2cc(C(F)(F)F)cc(C(F)(F)F)c2)c1` [compound 9, N-[3,5-Bis(trifluoromethyl)phenyl]-5-cyano-2-hydroxybenzamide], the inhibition at 1 µg/mL (Drug concentration at 1 μg/mL) worked out at 92.2%. The inhibition at 10 µg/mL (Drug concentration at 10 μg/mL) was found to be 99.6%.

With `Cc1ccc(O)c(C(=O)Nc2cc(C(F)(F)F)cc(C(F)(F)F)c2)c1` [compound 10], the “Inhibitory rate … (%)” value came to 95.8% (Drug concentration at 1 μg/mL) and 99.4% (Drug concentration at 10 μg/mL). `CC(C)(C)c1ccc(O)c(C(=O)Nc2cc(C(F)(F)F)cc(C(F)(F)F)c2)c1` [compound 11, N-[3,5-Bis(trifluoromethyl)phenyl]-5-[(1,1-dimethyl)ethyl]-2-hydroxybenzamide]: the inhibition at 1 µg/mL (Drug concentration at 1 μg/mL) came out at 92.9%. Moreover, where the note is “Drug concentration at 10 μg/mL”, the inhibition at 10 µg/mL was 98.3%. Taken in the same sequence, the figures for `CC(=O)c1ccc(O)c(C(=O)Nc2cc(C(F)(F)F)cc(C(F)(F)F)c2)c1` [compound 12, 5-Acetyl-N-[3,5-bis(trifluoromethyl)phenyl]-2-hydroxybenzamide] were 86.3% and 99.2%. For the molecule `CC(O)c1ccc(O)c(C(=O)Nc2cc(C(F)(F)F)cc(C(F)(F)F)c2)c1` (stereo not drawn) [compound 13], the “Inhibitory rate … (%)” value runs as follows: (Drug concentration at 1 μg/mL) 76.8%; (Drug concentration at 10 μg/mL) 96.0%. Consider `CON=C(C)c1ccc(O)c(C(=O)Nc2cc(C(F)(F)F)cc(C(F)(F)F)c2)c1` [compound 14], for which the “Inhibitory rate … (%)” value stood at 94.7% (Drug concentration at 1 μg/mL) and 98.3% (Drug concentration at 10 μg/mL). For `CC(=NOCc1ccccc1)c1ccc(O)c(C(=O)Nc2cc(C(F)(F)F)cc(C(F)(F)F)c2)c1` [compound 15], the “Inhibitory rate … (%)” value (Drug concentration at 1 μg/mL) came to 94.5% and the “Inhibitory rate … (%)” value (Drug concentration at 10 μg/mL) worked out at 99.2%.

As for `N#CC(C#N)=Cc1ccc(O)c(C(=O)Nc2cc(C(F)(F)F)cc(C(F)(F)F)c2)c1` [compound 16, N-[3,5-Bis(trifluoromethyl)phenyl]-5-(2,2-dicyanoethen-1-yl)-2-hydroxybenzamide], the inhibition at 1 µg/mL (Drug concentration at 1 μg/mL) was 42.7%. Further, the inhibition at 10 µg/mL (Drug concentration at 10 μg/mL) came to 99.4%. On to `COC(=O)C(C#N)=Cc1ccc(O)c(C(=O)Nc2cc(C(F)(F)F)cc(C(F)(F)F)c2)c1` [compound 17, 3-({N-[3,5-Bis(trifluoromethyl)phenyl]carbamoyl}-4-hydroxyphenyl)-2-cyanoacrylic acid methyl ester], for which the “Inhibitory rate … (%)” value (Drug concentration at 1 μg/mL) stood at 74.9% and the “Inhibitory rate … (%)” value (Drug concentration at 10 μg/mL) turned out to be 99.1%. On to `N#CC(=Cc1ccc(O)c(C(=O)Nc2cc(C(F)(F)F)cc(C(F)(F)F)c2)c1)C(=O)O` [compound 18], for which the “Inhibitory rate … (%)” value by setting is: (Drug concentration at 1 μg/mL) 59.7%; (Drug concentration at 10 μg/mL) 98.5%. For the molecule `C[Si](C)(C)C#Cc1ccc(O)c(C(=O)Nc2cc(C(F)(F)F)cc(C(F)(F)F)c2)c1` [compound 20, N-[3,5-bis(trifluoromethyl)phenyl]-2-hydroxy-5-[(trimethylsilyl)ethynyl]benzamide], under “Drug concentration at 1 μg/mL”, the inhibition at 1 µg/mL came out at 91.1%. Besides, for the setting “Drug concentration at 10 μg/mL”, the inhibition at 10 µg/mL came to 94.9%. For `C#Cc1ccc(O)c(C(=O)Nc2cc(C(F)(F)F)cc(C(F)(F)F)c2)c1` [compound 21], the “Inhibitory rate … (%)” value amounted to 53.3% (Drug concentration at 1 μg/mL) and 90.1% (Drug concentration at 10 μg/mL).

On to `O=C(Nc1cc(C(F)(F)F)cc(C(F)(F)F)c1)c1cc(CCc2ccccc2)ccc1O` [compound 24], for which the “Inhibitory rate … (%)” value (Drug concentration at 1 μg/mL) was found to be 92.3% and the “Inhibitory rate … (%)” value (Drug concentration at 10 μg/mL) amounted to 98.3%.

For `O=C(Nc1cc(C(F)(F)F)cc(C(F)(F)F)c1)c1cc(C(F)(F)F)ccc1O` [compound 25], the “Inhibitory rate … (%)” value turned out to be 96.4% (Drug concentration at 1 μg/mL) and 99.6% (Drug concentration at 10 μg/mL).

In the case of `O=C(Nc1cc(C(F)(F)F)cc(C(F)(F)F)c1)c1cc(C(F)(F)C(F)(F)F)ccc1O` [compound 26], the “Inhibitory rate … (%)” value (Drug concentration at 1 μg/mL) is 93.3% and the “Inhibitory rate … (%)” value (Drug concentration at 10 μg/mL) is 95.4%. The corresponding values for `O=C(Nc1cc(C(F)(F)F)cc(C(F)(F)F)c1)c1cc(-n2cccc2)ccc1O` [compound 27] are 93.8% and 97.9%. On to `O=C(Nc1cc(C(F)(F)F)cc(C(F)(F)F)c1)c1cc(-c2cccs2)ccc1O` [compound 28], for which the “Inhibitory rate … (%)” value is 79.5% (Drug concentration at 1 μg/mL) and 97.8% (Drug concentration at 10 μg/mL). Consider `Cc1nc(-c2ccc(O)c(C(=O)Nc3cc(C(F)(F)F)cc(C(F)(F)F)c3)c2)cs1` [compound 30, N-[3,5-Bis(trifluoromethyl)phenyl]-2-hydroxy-5-(2-methylthiazol-4-yl)benzamide], for which, under “Drug concentration at 1 μg/mL”, the inhibition at 1 µg/mL came out at 82.1%. In addition, for the setting “Drug concentration at 10 μg/mL”, the inhibition at 10 µg/mL was determined as 95.3%.

As to `O=C(Nc1cc(C(F)(F)F)cc(C(F)(F)F)c1)c1cc(-c2ccccn2)ccc1O` [compound 32, N-[3,5-Bis(trifluoromethyl)phenyl]-2-hydroxy-5-(pyridin-2-yl)benzamide], under “Drug concentration at 1 μg/mL”, the inhibition at 1 µg/mL stood at 90.4%. In addition, the inhibition at 10 µg/mL (Drug concentration at 10 μg/mL) is 99%.

For the molecule `COc1ccc(O)c(C(=O)Nc2cc(C(F)(F)F)cc(C(F)(F)F)c2)c1` [compound 33], the “Inhibitory rate … (%)” value is 30.7% (Drug concentration at 1 μg/mL) and 97.0% (Drug concentration at 10 μg/mL). As to `CC(C)C(=O)c1ccc(O)c(C(=O)Nc2cc(C(F)(F)F)cc(C(F)(F)F)c2)c1` [compound 34, N-[3,5-Bis(trifluoromethyl)phenyl]-2-hydroxy-5-isobutyrylbenzamide], the inhibition at 1 µg/mL (Drug concentration at 1 μg/mL) turned out to be 90.7%. Further, where the note is “Drug concentration at 10 μg/mL”, the inhibition at 10 µg/mL was found to be 98.7%.

On to `COC(=O)c1ccc(O)c(C(=O)Nc2cc(C(F)(F)F)cc(C(F)(F)F)c2)c1` [compound 35, N-[3,5-bis(trifluoromethyl)phenyl]-4-hydroxyisophthalamic acid methyl ester], for which the inhibition at 1 µg/mL (Drug concentration at 1 μg/mL) came to 88.2%. The inhibition at 10 µg/mL (Drug concentration at 10 μg/mL) turned out to be 96.4%.

Consider `O=C(Nc1cc(C(F)(F)F)cc(C(F)(F)F)c1)c1ccc(O)c(C(=O)Nc2cc(C(F)(F)F)cc(C(F)(F)F)c2)c1` [compound 37], for which the “Inhibitory rate … (%)” value (Drug concentration at 10 μg/mL) stood at 94.5%. As to `CN(C)C(=O)c1ccc(O)c(C(=O)Nc2cc(C(F)(F)F)cc(C(F)(F)F)c2)c1` [compound 38, N^3-[3,5-bis(trifluoromethyl)phenyl]-4-hydroxy-N^1,N^1-dimethylisophthalamide], for the setting “Drug concentration at 1 μg/mL”, the inhibition at 1 µg/mL worked out at 16%. Further, the inhibition at 10 µg/mL (Drug concentration at 10 μg/mL) was determined as 87.1%. Taken in the same sequence, the figures for `O=C(Nc1cc(C(F)(F)F)cc(C(F)(F)F)c1)c1cc(C(=O)N2CCCCC2)ccc1O` [compound 39, N-[3,5-Bis(trifluoromethyl)phenyl]-2-hydroxy-5-(piperidine-1-carbonyl)benzamide] were 23.7% and 82.2%.

For `CN(C)S(=O)(=O)c1ccc(O)c(C(=O)Nc2cc(C(F)(F)F)cc(C(F)(F)F)c2)c1` [compound 41, N-[3,5-Bis(trifluoromethyl)phenyl]-5-dimethylsufamoyl-2-hydroxybenzamide], the “Inhibitory rate … (%)” value was 42.2% (Drug concentration at 1 μg/mL) and 95.9% (Drug concentration at 10 μg/mL). On to `O=C(Nc1cc(C(F)(F)F)cc(C(F)(F)F)c1)c1cc(S(=O)(=O)n2cccc2)ccc1O` [compound 42, N-[3,5-Bis(trifluoromethyl)phenyl]-2-hydroxy-5-(pyrrole-1-sulfonyl)benzamide], for which the inhibition at 1 µg/mL (Drug concentration at 1 μg/mL) came to 84.4%. Moreover, under “Drug concentration at 10 μg/mL”, the inhibition at 10 µg/mL was determined as 98.1%.

Turning to `CN(C)c1ccc(O)c(C(=O)Nc2cc(C(F)(F)F)cc(C(F)(F)F)c2)c1` [compound 44], for the setting “Drug concentration at 10 μg/mL”, the “Inhibitory rate … (%)” value is 67.5%. As for `O=C(Nc1ccc(O)c(C(=O)Nc2cc(C(F)(F)F)cc(C(F)(F)F)c2)c1)c1ccccc1` [compound 45], the “Inhibitory rate … (%)” value (Drug concentration at 10 μg/mL) worked out at 63.4%. Regarding `O=C(Nc1ccccc1)Nc1ccc(O)c(C(=O)Nc2cc(C(F)(F)F)cc(C(F)(F)F)c2)c1` [compound 46], the “Inhibitory rate … (%)” value worked out at 20.5% (Drug concentration at 1 μg/mL) and 88.4% (Drug concentration at 10 μg/mL). As to `O=C(Nc1cc(C(F)(F)F)cc(C(F)(F)F)c1)c1cc(NC(=S)Nc2ccccc2)ccc1O` [compound 47], the “Inhibitory rate … (%)” value by setting is: (Drug concentration at 1 μg/mL) 51.8%; (Drug concentration at 10 μg/mL) 97.2%.

For the origin of these results see patent US20080234233A1, “MEDICAMENT FOR TREATMENT OF NEURODEGENERATIVE DISEASES” (INSTITUTE OF MEDICINAL MOLECULAR DESIGN INC., priority 2002, published 2008).
